Experiments:
D2 receptor subtype = D2 receptor subtype (Homo sapiens, UniProt P14416); assay: pharmacological studies at the D2 receptor subtype
[1] = molecular target: ^3H-oxotremorine-M binding (muscarinic receptors); assay: 3H-oxotremorine-M binding study; conditions: inhibition of binding of ^3H-oxotremorine-M; read-out: inhibition constant (Ki)
m4 receptors = m4 receptors (Homo sapiens, UniProt P08173); assay type: cell-based; conditions: CHO m4 cells treated with pertussis toxin
m4 receptors, sequence (P08173 whole entry): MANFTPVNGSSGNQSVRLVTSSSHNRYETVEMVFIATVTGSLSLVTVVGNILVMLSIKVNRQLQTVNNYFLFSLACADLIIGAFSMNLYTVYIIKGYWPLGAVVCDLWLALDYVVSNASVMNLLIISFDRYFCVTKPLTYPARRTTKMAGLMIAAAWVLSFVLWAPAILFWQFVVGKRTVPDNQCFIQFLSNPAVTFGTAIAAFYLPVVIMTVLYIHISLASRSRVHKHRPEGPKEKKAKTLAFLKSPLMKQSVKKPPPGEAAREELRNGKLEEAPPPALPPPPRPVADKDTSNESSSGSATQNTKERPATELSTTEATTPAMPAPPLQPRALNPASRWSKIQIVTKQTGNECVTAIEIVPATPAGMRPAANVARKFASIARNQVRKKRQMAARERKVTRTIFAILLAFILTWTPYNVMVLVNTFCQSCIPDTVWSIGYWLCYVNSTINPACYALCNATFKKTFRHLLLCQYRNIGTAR

D2 receptor subtype, sequence (P14416 whole entry): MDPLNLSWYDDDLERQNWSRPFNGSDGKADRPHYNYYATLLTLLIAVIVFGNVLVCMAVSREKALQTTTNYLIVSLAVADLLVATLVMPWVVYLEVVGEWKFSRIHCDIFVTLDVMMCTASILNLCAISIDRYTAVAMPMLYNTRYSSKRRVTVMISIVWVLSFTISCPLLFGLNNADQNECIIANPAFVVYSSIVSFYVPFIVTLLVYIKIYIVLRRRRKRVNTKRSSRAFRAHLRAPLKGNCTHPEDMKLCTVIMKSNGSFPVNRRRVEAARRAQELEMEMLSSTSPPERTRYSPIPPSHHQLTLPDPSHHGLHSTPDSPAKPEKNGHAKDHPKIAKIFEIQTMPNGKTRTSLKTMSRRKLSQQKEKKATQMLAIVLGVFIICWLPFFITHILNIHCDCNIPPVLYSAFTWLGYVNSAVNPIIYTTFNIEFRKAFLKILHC

## CCCCCCOc1nsnc1C1=CCCN(C)C1 [xanomeline, 3-(4-hexyloxy-1,2,5-thiadiazol-3-yl)-1,2,5,6-tetrahydro-1-methylpyridine]
D2 receptor subtype
  activity at the D2 receptor subtype: active
[1]
  Ki: 2 nM
m4 receptors
  formation of cAMP: efficaciously and potently stimulated the formation of cAMP

Source: patent EP0821956A1, “Method for treating disruptive behavior disorders” (ELI LILLY AND COMPANY, priority 1996, dated 1998)
